Results on two molecules are retold here after publication PMC10032564, “Ligand-Capped Cobalt(II) Multiplies the Value of the Double-Histidine Motif for PCS NMR Studies” (Journal of the American Chemical Society, 2023).

Where only a bound is given, the exact number is not on record here.

In general, Kd refers to the free concentration of one partner at which half of the binding sites on the other are occupied at equilibrium, for simple one-to-one binding. High values mean a looser complex, low ones a tighter complex.

In assay [1] the target is T1, GB1 (K28H/Q32H, diHis GB1) (Streptococcus sp. 'group G', UniProt P06654, K254H/Q258H).
T1 construct: gene spg; GB1
Kind of assay: NMR titration; PCS of the IDA-Co2+ complex. Type of assay: binding.

In assay [2] the target is T1, GB1 (K28H/Q32H, diHis GB1). Kind of assay: NMR (Kd measurement; PCS of the NTA-Co2+ complex). In kind it is binding.

T1 sequence (P06654 228-282 K254H/Q258H limits assumed): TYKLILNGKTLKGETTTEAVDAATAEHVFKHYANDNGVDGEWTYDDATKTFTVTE

On to `O=C(O)CNCC(=O)O` [IDA-Co2+, iminodiacetic acid], for which, in assay [1], the Kd was under 212 µM.
Take `O=C(O)CN(CC(=O)O)CC(=O)O` [NTA-Co2+, nitrilotriacetic acid]: the Kd in assay [2] is 128 µM.
